These results are taken from article PMC9167584, “Calotropin and corotoxigenin 3-O-glucopyranoside from the desert milkweed Asclepias subulata inhibit the Na^+/K^+-ATPase activity” (PeerJ, 2022).

Values joined by “and” are separate entries in the source; they are usually repeats but may differ in a detail not shown here. Equal entries are not always repeated.

Series [1] concerns the target brain porcine Na^+/K^+-ATPase. Briefly: In vitro inhibitory assay of Na+/K+-ATPase (colorimetric Pi release). The series is classed as biochemical. To be noted: brain porcine enzyme; mean ± SD; triplicate; read-out: Inhibition of Na^+/K^+-ATPase IC50. The protocol:
We used the inhibitory assay method described by [Mugpasao et al. (2014)]. The enzymatic activity of Na^+/K^+-ATPase was determined by colorimetric quantification of orthophosphate (Pi) released during the ATP hydrolysis according to the method of [Taussky, Shorr & Kurzmann (1953)]. The inhibition assays were done using commercial brain porcine Na^+/K^+-ATPase. Protein concentration was determined according to the Bradford method ([Bradford, 1976]) using bovine serum albumin as standard. As inhibitors, we used cardenolides ouabain, calotropin, and C3OG. The cardenolide ouabain was used as a reference molecule. The reaction was done in a 96-wells plate, adding 10 μL of Na^+/K^+-ATPase solution (0.5 U/mL) with 4 μL of NaCl/KCl solution (35 mM of KCl and 1.65 M of NaCl), 70 μL of Tris-HCl buffer (30 mM Tris-HCl, 0.5 mM of EDTA and 7.8 mM of MgCl2) at 37 °C and 30 min with 6 μL either dimethyl sulfoxide (DMSO) or test compounds on each well. The range concentrations of inhibitors were 100.0–0.001 μM of ouabain and 1000.0–0.01 μM of calotropin and C3OG. Then, 20 μL of ATP solution 22 mM was added to each well, and the reaction solution was incubated at 37 °C for 15 min.
Next, we added 30 μL of trichloroacetic acid (TCA) at 30% (w/v) to each well to block the reaction. The 96-wells plate was mixed slightly and centrifuged at 3,000 rpm for 15 min. Finally, 50 μL of the supernatant was transferred to another 96-well plate and were coated with 100 μL of Taussky-Shorr solution. The absorbance was read at 660 nm in a microplate reader ThermoScientific Multiskan (Thermo Fisher, Vantaa, Finland) after incubation of 5 min at room temperature, protected from the light. The color intensity was proportional to the release of orthophosphate, indicating ATP hydrolysis and the Na^+/K^+-ATPase activity. The inhibition of the enzymatic activity by cardenolides was managed in the percentage of Na^+/K^+-ATPase activity compared with control. The data of inhibitory Na^+/K^+-ATPase activity were expressed in IC50 and standard deviation. All experiments were performed in triplicate. […]

Series [2] has as its system porcine brain Na^+/K^+-ATPase. Description: Kinetic analysis of Na+/K+-ATPase inhibition (Michaelis-Menten, Lineweaver-Burk). The format is biochemical. The conditions noted are these: for Type of inhibition: Lineweaver-Burk plot, 0.1 and 1.0 μM inhibitor; for Ki: uncompetitive inhibition model, ATP as substrate. The protocol: The Michaelis-Menten kinetic parameters Km and Vmax of porcine brain Na^+/K^+-ATPase were determined from the initial velocities by modifying the ATP concentrations from 0.125 to 4.0 mM using the enzymatic standard conditions previously mentioned. Initial rates were recorded for 15 min in intervals of 3 min. The measurements were done in the absence or presence of inhibitors. The concentration of Na^+, K^+, and Mg^2+ ions remained constant. The initial velocity when the A. subulata cardenolides were tested was recorded for 15 min. Kinetic analyses were carried out in the presence or absence of two different concentrations of cardenolides (0.1 and 1.0 μM) to determine the nature of the inhibition of the Na^+/K^+-ATPase. All experiments were performed in triplicate. The experimental data were fitted to the Michaelis-Menten equation by non-linear regression analysis. The type of inhibition was obtained by Lineweaver-Burk double reciprocal plots using GraphPad Prism software version 8 (GraphPad Software Inc., San Diego, CA, USA).

The subject of a further series is A549, PC-3, and LS-180. On the set-up: method as in Rascón-Valenzuela et al. (2015). The conditions noted are these: human cancer cell lines A549, PC-3, LS-180; ref Rascón-Valenzuela et al. (2015); cited from earlier work.
Series [3] concerns the target porcine cerebral cortex Na^+/K^+-ATPase. Also noted: method as in Agrawal et al. (2021). To be noted: porcine cerebral cortex enzyme; ref Agrawal et al. (2021); cited from earlier work.
The next series concerns the target Na^+/K^+-ATPase. On the set-up: method as in Ren et al., 2020. The conditions noted are these: reference inhibitor; ref Ren et al., 2020; cited from earlier work.
[4] abbreviates: in presence of 0.1 μM inhibitor.
[5] abbreviates: in presence of 1.0 μM inhibitor.

The Ki is the equilibrium dissociation constant of an inhibitor or competing ligand from its target. A high value points to lower affinity. As to `C[C@]12CCC3C(CCC4C[C@@H](O[C@@H]5O[C@H](CO)[C@@H](O)[C@H](O)[C@H]5O)CC[C@@]43C=O)[C@@]1(O)CC[C@@H]2C1=CC(=O)OC1` (stereo partly shown) [C3OG, corotoxigenin 3-O-glucopyranoside], the IC50 in series [1] was determined as 870 ± 200 nM. For the same compound, in series [2], the Type of inhibition entry is “Uncompetitive”; the Ki was 500 nM and 520 nM. Moreover, in series [2] (setting [4]), the Vmax is on record as 1.47 ± 0.08 μmolPi/mg/min. For the same compound, in series [2] (setting [5]), the Vmax is 0.80 ± 0.06 μmolPi/mg/min. For the same compound, in the series on A549, PC-3, and LS-180, the “IC50 (cytotoxicity)” value is listed as “micromolar order”.
For `C[C@@H]1C[C@H](O)[C@]2(O)O[C@@H]3C[C@@]4(C=O)[C@@H](CC[C@@H]5[C@@H]4CC[C@]4(C)[C@@H](C6=CC(=O)OC6)CC[C@]54O)C[C@H]3O[C@@H]2O1` [Calotropin, calotropin], the IC50 in series [1] is 270 ± 60 nM; in series [3] it was 270 nM. For the same compound, the Type of inhibition entry in series [2] is reported as “Uncompetitive”. For the same compound, the Vmax in series [2] (setting [4]) came to 2.17 ± 0.10 μmolPi/mg/min; in series [2] (setting [5]), 0.77 ± 0.10 μmolPi/mg/min. Further, in series [2], affinity was put at a Ki of 200 ± 30 nM. In addition, the “IC50 (cytotoxicity)” value in the series with A549, PC-3, and LS-180 is “nanomolar order”.
Consider `C[C@@H]1O[C@@H](O[C@H]2C[C@@H](O)[C@]3(CO)[C@H]4[C@H](O)C[C@]5(C)[C@@H](C6=CC(=O)OC6)CC[C@]5(O)[C@@H]4CC[C@]3(O)C2)[C@H](O)[C@H](O)[C@H]1O` [Ouabain, ouabain octahydrate, reference compound], for which the IC50 in series [1] is 120 ± 20 nM. Further, the Type of inhibition entry in series [2] is “uncompetitive”. Also, the Vmax was 2.11 ± 0.14 μmolPi/mg/min in series [2] (setting [4]) and 0.66 ± 0.04 μmolPi/mg/min in series [2] (setting [5]). For the same compound, in series [2], the Ki stood at 160 nM.
Take `C[C@H]1O[C@@H](O[C@H]2[C@@H](O)C[C@H](O[C@H]3[C@@H](O)C[C@H](O[C@H]4CC[C@@]5(C)[C@H](CC[C@@H]6[C@@H]5C[C@@H](O)[C@]5(C)[C@@H](C7=CC(=O)OC7)CC[C@]65O)C4)O[C@@H]3C)O[C@@H]2C)C[C@H](O)[C@@H]1O` [digoxin]: on Na^+/K^+-ATPase, the IC50 is 230 nM.
